Where two headings read alike, the source gives them in different places.
Key:
[1] = target: Recombinant Human NF-kappaB-Inducing Kinase (NIK/MAP3K14) (Homo sapiens, UniProt Q99558); assay: Inhibition of auto-phosphorylation of recombinant human NIK/MAP3K14 activity (AlphaScreen); assay type: biochemical; conditions: 5 μM ATP, 1 nM NIK, average if tested more than once
Summary of the method: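 GST-tagged NIK (1 nM) auto-phosphorylation with 5 μM ATP, 2 h at 25 °C, pH 7.5 Tris buffer, 0.7% DMSO; stopped with anti-phospho-IKK Ser176/180 antibody and read by AlphaScreen. Signal normalized to full-activity and no-enzyme/no-ATP controls; IC50 from sigmoidal fit of % inhibition vs log concentration.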

[2] = tested on: p-IKKa levels in L363 (NIK translocated multiple myeloma) cells; assay: Effect of compounds on p-IKKa levels in L363 (NIK translocated multiple myeloma) cells (AlphaLISA SureFire Ultra p-IKKa Ser176/180); assay type: cell-based, human; conditions: average if tested more than once, read-out: Assay 2 IC50
Summary of the method: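 L363 multiple myeloma cells, BAFF-stimulated overnight (250 ng/ml), then 6 h at 37 °C with compound (11-point 1:3 series, 0.3% DMSO) plus BAFF and 10 μM MG132. p-IKKa Ser176/180 read by AlphaLISA SureFire Ultra; IC50 from sigmoidal fit normalised to stimulated and unstimulated controls.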

[3] = Homo sapiens, L-363, p-IKKa levels in L363 cells

Sequence of Recombinant Human NF-kappaB-Inducing Kinase (NIK/MAP3K14) (Q99558 whole entry): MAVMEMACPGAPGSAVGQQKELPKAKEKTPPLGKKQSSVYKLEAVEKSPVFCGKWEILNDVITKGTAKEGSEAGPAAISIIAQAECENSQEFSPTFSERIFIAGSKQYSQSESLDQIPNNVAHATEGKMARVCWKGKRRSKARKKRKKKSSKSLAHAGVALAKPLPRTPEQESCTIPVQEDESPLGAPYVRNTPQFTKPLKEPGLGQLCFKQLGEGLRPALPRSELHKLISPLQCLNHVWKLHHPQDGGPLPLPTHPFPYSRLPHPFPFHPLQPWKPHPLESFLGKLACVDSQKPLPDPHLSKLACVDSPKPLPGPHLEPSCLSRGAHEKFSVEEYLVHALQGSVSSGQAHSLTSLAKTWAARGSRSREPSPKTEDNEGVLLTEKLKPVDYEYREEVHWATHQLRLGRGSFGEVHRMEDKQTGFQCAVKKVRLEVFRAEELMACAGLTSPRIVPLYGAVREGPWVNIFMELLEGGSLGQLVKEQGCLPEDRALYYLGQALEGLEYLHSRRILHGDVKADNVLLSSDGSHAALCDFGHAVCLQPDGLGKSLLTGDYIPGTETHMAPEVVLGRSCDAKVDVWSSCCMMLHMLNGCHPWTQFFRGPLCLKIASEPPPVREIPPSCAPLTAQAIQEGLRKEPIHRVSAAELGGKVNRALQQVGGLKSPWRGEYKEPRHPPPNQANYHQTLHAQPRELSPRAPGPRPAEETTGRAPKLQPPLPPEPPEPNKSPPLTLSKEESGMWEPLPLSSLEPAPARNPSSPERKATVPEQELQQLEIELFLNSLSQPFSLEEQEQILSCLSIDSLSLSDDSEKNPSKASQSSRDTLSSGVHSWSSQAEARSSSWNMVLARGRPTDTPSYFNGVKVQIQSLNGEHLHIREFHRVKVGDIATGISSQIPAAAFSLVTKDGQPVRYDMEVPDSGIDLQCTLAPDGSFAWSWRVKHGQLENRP

Row | Structure (SMILES) | IC50 [1] [nM] | IC50 [2, 3] [nM] | IC50 ([2]; p-IKKa levels in L363 cells) [nM]
1 | CNC(=O)c1cc(Nc2nccc(-c3csc(-c4cccc([C@]5(O)CCN(C)C5=O)c4)n3)n2)n(C2CCCC2)n1 [Example 15, (R)-1-Cyclopentyl-5-((4-(2-(3-(3-hydroxy-1-methyl-2-oxopyrrolidin-3-yl)phenyl)thiazol-4-yl)pyrimidin-2-yl)amino)-N-methyl-1H-pyrazole-3-carboxamide] | < 100 | 100 to 500 | –
2 | Cc1cnc(Nc2ccn(C)n2)nc1-c1csc(-c2cccc([C@]3(O)CCN(C)C3=O)c2)n1 [Example 16, (R)-3-Hydroxy-1-methyl-3-(3-(4-(5-methyl-2-((1-methyl-1H-pyrazol-3-yl)amino)pyrimidin-4-yl)thiazol-2-yl)phenyl)pyrrolidin-2-one] | 100 to 500 | > 501 | –
3 | Cc1sc(-c2cccc([C@]3(O)CCN(C)C3=O)c2)nc1-c1ccnc(Nc2ccn(C)n2)n1 [Example 17, (R)-3-Hydroxy-1-methyl-3-(3-(5-methyl-4-(2-((1-methyl-1H-pyrazol-3-yl)amino)pyrimidin-4-yl)thiazol-2-yl)phenyl)pyrrolidin-2-one] | < 100 | > 501 | –
4 | CN1CC[C@@](O)(c2cccc(-c3csc(-c4ccnc(Nc5cnn(CC6CC6)c5)n4)n3)c2)C1=O [Example 20, (R)-3-(3-(2-(2-((1-(cyclopropylmethyl)-1H-pyrazol-4-yl)amino)pyrimidin-4-yl)thiazol-4-yl)phenyl)-3-hydroxy-1-methylpyrrolidin-2-one] | 100 to 500 | > 501 | –
5 | CN1CC[C@@](O)(c2cccc(-c3cccc(-c4ccnc(Nc5ccn(C)n5)n4)n3)c2)C1=O [Example 22, (R)-3-Hydroxy-1-methyl-3-(3-(6-(2-((1-methyl-1H-pyrazol-3-yl)amino)pyrimidin-4-yl)pyridin-2-yl)phenyl)pyrrolidin-2-one] | > 501 | > 501 | –
6 | CN1CC[C@@](O)(c2cccc(-c3cccc(-c4ccnc(NCCCO)n4)n3)c2)C1=O [Example 23, (R)-3-Hydroxy-3-(3-(6-(2-((3-hydroxypropyl)amino)pyrimidin-4-yl)pyridin-2-yl)phenyl)-1-methylpyrrolidin-2-one] | > 501 | > 501 | –
7 | Cc1cc(Nc2nccc(-c3csc(-c4cccc([C@]5(O)CCN(C)C5=O)c4)n3)n2)ccn1 [Example 43, (R)-3-Hydroxy-1-methyl-3-(3-(4-(2-((2-methylpyridin-4-yl)amino)pyrimidin-4-yl)thiazol-2-yl)phenyl)pyrrolidin-2-one] | < 100 | 100 to 500 | –
8 | CN1CC[C@@](O)(c2cccc(-c3csc(-c4ccnc(Nc5cnn(C(CO)CO)c5)n4)n3)c2)C1=O [Example 44, (R)-3-(3-(2-(2-((1-(1,3-dihydroxypropan-2-yl)-1H-pyrazol-4-yl)amino)pyrimidin-4-yl)thiazol-4-yl)phenyl)-3-hydroxy-1-methylpyrrolidin-2-one] | < 100 | > 501 | –
9 | CC(Nc1nccc(-c2csc(-c3cccc([C@]4(O)CCN(C)C4=O)c3)n2)n1)c1nc2ccccc2[nH]1 (stereo partly drawn) [Example 45, (R)-3-(3-(4-(2-(((R,S)-1-(1H-benzo[d]imidazol-2-yl)ethyl)amino)pyrimidin-4-yl)thiazol-2-yl)phenyl)-3-hydroxy-1-methylpyrrolidin-2-one] | < 100 | – | > 501
10 | CN1CC[C@@](O)(c2cccc(-c3nc(-c4ccnc(NC5CCN(S(C)(=O)=O)CC5)n4)cs3)c2)C1=O [Example 47, (R)-3-Hydroxy-1-methyl-3-(3-(4-(2-((1-(methylsulfonyl)piperidin-4-yl)amino)pyrimidin-4-yl)thiazol-2-yl)phenyl)pyrrolidin-2-one] | < 100 | > 501 | –
11 | Cc1cccc(Nc2nccc(-c3csc(-c4cccc([C@]5(O)CCN(C)C5=O)c4)n3)n2)n1 [Example 48, (R)-3-hydroxy-1-methyl-3-(3-(4-(2-((6-methylpyridin-2-yl)amino)pyrimidin-4-yl)thiazol-2-yl)phenyl)pyrrolidin-2-one] | < 100 | > 501 | –
12 | Cc1cc(Nc2nccc(-c3csc(-c4cccc([C@]5(O)CCN(C)C5=O)c4)n3)n2)nn1C [Example 49, (R)-3-(3-(4-(2-((1,5-Dimethyl-1H-pyrazol-3-yl)amino)pyrimidin-4-yl)thiazol-2-yl)phenyl)-3-hydroxy-1-methylpyrrolidin-2-one] | < 100 | 100 to 500 | –
13 | CN1CC[C@@](O)(c2cccc(-c3nc(-c4nc(Nc5ccn(C)n5)ncc4F)cs3)c2)C1=O [Example 52, (R)-3-(3-(4-(5-Fluoro-2-((1-methyl-1H-pyrazol-3-yl)amino)pyrimidin-4-yl)thiazol-2-yl)phenyl)-3-hydroxy-1-methylpyrrolidin-2-one] | 100 to 500 | > 501 | –
14 | CN1CCn2nc(Nc3nccc(-c4csc(-c5cccc([C@]6(O)CCN(C)C6=O)c5)n4)n3)cc2C1=O [Example 53, (R)-2-((4-(2-(3-(3-Hydroxy-1-methyl-2-oxopyrrolidin-3-yl)phenyl)thiazol-4-yl)pyrimidin-2-yl)amino)-5-methyl-6,7-dihydropyrazolo[1,5-a]pyrazin-4(5H)-one] | < 100 | 100 to 500 | –
15 | CN1CC[C@@](O)(c2cccc(-c3nc(-c4ccnc(Nc5cnn6c5NCCC6)n4)cs3)c2)C1=O [Example 54, (R)-3-hydroxy-1-methyl-3-(3-(4-(2-((4,5,6,7-tetrahydropyrazolo[1,5-a]pyrimidin-3-yl)amino)pyrimidin-4-yl)thiazol-2-yl)phenyl)pyrrolidin-2-one] | < 100 | 100 to 500 | –
16 | CN1CC[C@@](O)(c2cccc(-n3ccc(-c4ccnc(Nc5ccn(C)n5)n4)n3)c2)C1=O [Example 55, (R)-3-hydroxy-1-methyl-3-(3-(3-(2-((1-methyl-1H-pyrazol-3-yl)amino)pyrimidin-4-yl)-1H-pyrazol-1-yl)phenyl)pyrrolidin-2-one] | < 100 | 100 to 500 | –
17 | CN1CC[C@@](O)(c2cccc(-c3nc(-c4ccnc(Nc5ccn(C)n5)n4)cs3)c2)C1=O [Example 56, (R)-3-hydroxy-1-methyl-3-(3-(4-(2-((1-methyl-1H-pyrazol-3-yl)amino)pyrimidin-4-yl)thiazol-2-yl)phenyl)pyrrolidin-2-one] | < 100 | 100 to 500 | –
18 | CCn1ncc(C)c1Nc1nccc(-c2csc(-c3cccc([C@]4(O)CCN(C)C4=O)c3)n2)n1 [Example 64, (R)-3-(3-(4-(2-((1-ethyl-4-methyl-1H-pyrazol-5-yl)amino)pyrimidin-4-yl)thiazol-2-yl)phenyl)-3-hydroxy-1-methylpyrrolidin-2-one] | > 501 | > 501 | –
19 | CN1CC[C@@](O)(c2cccc(-c3nc(-c4ccnc(Nc5ccnn5CC5CC5)n4)cs3)c2)C1=O [Example 65, (R)-3-(3-(4-(2-((1-(cyclopropylmethyl)-1H-pyrazol-5-yl)amino)pyrimidin-4-yl)thiazol-2-yl)phenyl)-3-hydroxy-1-methylpyrrolidin-2-one] | 100 to 500 | > 501 | –
20 | CC(C)n1nccc1Nc1nccc(-c2csc(-c3cccc([C@]4(O)CCN(C)C4=O)c3)n2)n1 [Example 66, (R)-3-hydroxy-3-(3-(4-(2-((1-isopropyl-1H-pyrazol-5-yl)amino)pyrimidin-4-yl)thiazol-2-yl)phenyl)-1-methylpyrrolidin-2-one] | 100 to 500 | > 501 | –
